Assay: The inhibition of HCMV replication by digitoxin: The effect of digitoxin analogs on HCMV replication was tested. HFFs were infected with pp28-luciferase HCMV and treated with the compounds (Table 2, FIG. 2A). EC50, CC50 and selectivity index (SI) calculated as CC50/EC50 were determined for each compound. […] The compounds with the best SI were α-L rhamnose, α-L amicetose and mannose. Virus yield was determined for selected compounds (FIG. 2B), and a dose dependent effect on virus DNA yield was observed.

| SMILES | EC50 [nM] |
| --- | --- |
| CC1OC(OC2C(C)OC(OC3C(O)CC(O[C@H]4CC[C@@]5(C)[C@H](CC[C@@H]6[C@@H]5CC[C@]5(C)[C@@H](C7=CC(=O)OC7)CC[C@]65O)C4)OC3C)C(C)C2O)CC(OC2OC(C)[C@H](OC3OC(C)[C@@H](OC4OC(C)[C@@H](O)C(O)[C@@H]4O)C(O)[C@@H]3O)C(O)[C@@H]2O)C1C (some centres not stated) | 233 |
| CC1OC(OC2C(O)CC(OC3C(O)CC(O[C@H]4CC[C@@]5(C)[C@H](CC[C@@H]6[C@@H]5CC[C@]5(C)[C@@H](C7=CC(=O)OC7)CC[C@]65O)C4)OC3C)OC2C)CC(OC2OC(C)[C@@H](O)C[C@H]2O)C1C (some centres not stated) | 37.5 |
| CC1OC(OC2C(O)CC(OC3C(O)CC(O[C@H]4CC[C@@]5(C)[C@H](CC[C@@H]6[C@@H]5CC[C@]5(C)[C@@H](C7=CC(=O)OC7)CC[C@]65O)C4)OC3C)OC2C)CC(OC2OC(C)[C@@H](O)C(O)[C@H]2O)C1C (some centres not stated) | 26.6 |
| CC1OC(OC2C(C)OC(OC3C(O)CC(O[C@H]4CC[C@@]5(C)[C@H](CC[C@@H]6[C@@H]5CC[C@]5(C)[C@@H](C7=CC(=O)OC7)CC[C@]65O)C4)OC3C)C(C)C2O)CC(OC2OC(C)[C@H](OC3OC(C)[C@@H](OC4OC(C)[C@@H](O)C[C@@H]4O)C[C@@H]3O)C[C@@H]2O)C1C (some centres not stated) | 113 |
| CC1OC(OC2C(C)OC(OC3C(O)CC(O[C@H]4CC[C@@]5(C)[C@H](CC[C@@H]6[C@@H]5CC[C@]5(C)[C@@H](C7=CC(=O)OC7)CC[C@]65O)C4)OC3C)C(C)C2O)CC(OC2OC(C)[C@@H](OC3OC(C)[C@H](OC4OC(C)[C@H](O)C[C@H]4O)C[C@H]3O)C[C@H]2O)C1C (some centres not stated) | 2080 |
| CC1OC(OC2C(C)OC(OC3C(O)CC(O[C@H]4CC[C@@]5(C)[C@H](CC[C@@H]6[C@@H]5CC[C@]5(C)[C@@H](C7=CC(=O)OC7)CC[C@]65O)C4)OC3C)C(C)C2O)CC(OC2OC(C)[C@@H](OC3OC(C)[C@H](OC4OC(C)[C@H](O)C(O)[C@H]4O)C(O)[C@H]3O)C(O)[C@H]2O)C1C (some centres not stated) | 322 |
| CC1OC(OC2C(O)CC(OC3C(O)CC(O[C@H]4CC[C@@]5(C)[C@H](CC[C@@H]6[C@@H]5CC[C@]5(C)[C@@H](C7=CC(=O)OC7)CC[C@]65O)C4)OC3C)OC2C)CC(OC2OC(C)[C@H](OC3OC(C)[C@@H](O)C(O)[C@@H]3O)C(O)[C@@H]2O)C1C (some centres not stated) | 36.7 |
| CC1OC(OC2C(O)CC(OC3C(O)CC(O[C@H]4CC[C@@]5(C)[C@H](CC[C@@H]6[C@@H]5CC[C@]5(C)[C@@H](C7=CC(=O)OC7)CC[C@]65O)C4)OC3C)OC2C)CC(OC2OC(C)[C@@H](OC3OC(C)[C@H](O)C[C@H]3O)C[C@H]2O)C1C (some centres not stated) | 786 |
| CC1OC(OC2C(O)CC(OC3C(O)CC(O[C@H]4CC[C@@]5(C)[C@H](CC[C@@H]6[C@@H]5CC[C@]5(C)[C@@H](C7=CC(=O)OC7)CC[C@]65O)C4)OC3C)OC2C)CC(OC2OC(C)[C@@H](OC3OC(C)[C@H](O)C(O)[C@H]3O)C(O)[C@H]2O)C1C (some centres not stated) | 210 |
| CC1OC(OC2C(O)CC(OC3C(O)CC(O[C@H]4CC[C@@]5(C)[C@H](CC[C@@H]6[C@@H]5CC[C@]5(C)[C@@H](C7=CC(=O)OC7)CC[C@]65O)C4)OC3C)OC2C)CC(OC2OC(CO)[C@H](O)C(O)[C@@H]2O)C1C (some centres not stated) | 7.31 |
| CC1OC(OC2C(O)CC(OC3C(O)CC(O[C@H]4CC[C@@]5(C)[C@H](CC[C@@H]6[C@@H]5CC[C@]5(C)[C@@H](C7=CC(=O)OC7)CC[C@]65O)C4)OC3C)OC2C)CC(OC2OC(C)[C@H](OC3OC(C)[C@@H](O)C[C@@H]3O)C[C@@H]2O)C1C (some centres not stated) | 14.8 |
| CC1OC(OC2C(O)CC(OC3C(O)CC(O[C@H]4CC[C@@]5(C)[C@H](CC[C@@H]6[C@@H]5CC[C@]5(C)[C@@H](C7=CC(=O)OC7)CC[C@]65O)C4)OC3C)OC2C)CC(OC2OC(C)[C@H](O)C(O)[C@@H]2O)C1C (some centres not stated) | 4.77 |

Reference: ChEMBL document CHEMBL5727610, “Cardiac glycoside analogs and their use in methods for inhibition of viral infection” (2020)
